Among the data in patent US8648092B2, “Imidazo[1,2-a]pyridine derivatives: preparation and pharmaceutical applications” (MEI Pharma, priority 2005, dated 2014) are IC50 and GI50 values, retold here.

Experiment [1] addresses HDAC1 enzyme (recombinant GST-HDAC1) (Homo sapiens (Human), UniProt Q13547). As to the kind of experiment: In vitro HDAC assay for determination of IC50 values (BIOMOL fluorescent-based HDAC activity assay). In kind it is biochemical. The following applies: Flur de lys substrate, 2 h room temperature, read-out: IC50 (HDAC 1). In short, it runs like this:
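Recombinant human GST-HDAC1, baculovirus-expressed in SF9 cells and glutathione-purified, tested with a fluorogenic deacetylase substrate; Fluor de Lys developer added for 10 min. Fluorescence at 360 nm excitation/460 nm emission; IC50 fitted from a concentration series.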

The next experiment relates to Colo205 cells. Kind of experiment: Cell-based proliferation assay for determination of GI50 values (CyQUANT). More on the design: species or system human. In short, it runs like this: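 Colo205 cells in RPMI 1640 with 5% FBS, seeded 5000/well and grown 24 h at 37 °C. Exposure to compound lasted 96 h, with growth read by CyQUANT. GI50 = concentration giving 50% growth inhibition, from dose-response curves.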

[2] abbreviates: Homo sapiens, COLO 205, 96 h treatment.
Where [3] appears, read: Homo sapiens, COLO 205, 96 h, 96 h treatment.

Usually IC50 stands for the concentration that inhibits the measured activity by half. A word on the GI50: it is the concentration that inhibits growth by half. Low values mean more potent growth inhibition, high ones less potent growth inhibition.

HDAC1 enzyme (recombinant GST-HDAC1), sequence (Q13547 whole entry): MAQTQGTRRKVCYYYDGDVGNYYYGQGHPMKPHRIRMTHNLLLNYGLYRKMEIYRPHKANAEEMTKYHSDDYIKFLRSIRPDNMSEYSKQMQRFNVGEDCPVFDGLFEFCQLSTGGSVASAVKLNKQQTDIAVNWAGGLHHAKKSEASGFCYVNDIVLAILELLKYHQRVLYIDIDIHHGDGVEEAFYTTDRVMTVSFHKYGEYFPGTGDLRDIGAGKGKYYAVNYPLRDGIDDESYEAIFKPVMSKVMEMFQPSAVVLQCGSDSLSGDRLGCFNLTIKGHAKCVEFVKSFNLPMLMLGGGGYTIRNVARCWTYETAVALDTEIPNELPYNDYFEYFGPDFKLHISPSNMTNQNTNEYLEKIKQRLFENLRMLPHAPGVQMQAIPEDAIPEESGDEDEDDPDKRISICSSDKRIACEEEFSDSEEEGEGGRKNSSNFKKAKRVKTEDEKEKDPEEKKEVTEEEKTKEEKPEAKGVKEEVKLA

`CCCCc1nc2cc(/C=C/C(=O)NO)ccn2c1CN(CCC)CCCC` [Compound 78, 3-{2-Butyl-3-[(butyl-propyl-amino)-methyl]-imidazo[1,2-a]pyridin-7-yl}-N-hydroxy-acrylamide]: the IC50 in experiment [1] amounted to 90 nM. Also, the GI50 with Colo205 cells (setting [2]) is 580 nM.

Take `CCN(CC)Cc1c(-c2ccccc2)nc2cc(C(=O)NO)ccn12` [Compound 79, 3-Diethylaminomethyl-2-phenyl-imidazo[1,2-a]pyridine-7-carboxylic acid hydroxyamide]: the IC50 in experiment [1] was > 10000 nM. Further, in the experiment on Colo205 cells (setting [2]), the GI50 is > 100000 nM.

As to `CCN(CC)Cc1c(C(C)(C)C)nc2cc(/C=C/C(=O)NO)ccn12` [Compound 80, 3-(2-tert-Butyl-3-diethylaminomethyl-imidazo[1,2-a]pyridin-7-yl)-N-hydroxy-acrylamide], the IC50 in experiment [1] came out at 1200 nM. Further, the GI50 in the experiment with Colo205 cells (setting [3]) turned out to be 4400 nM.

With `CCCN(CC)Cc1c(C(C)(C)C)nc2cc(/C=C/C(=O)NO)ccn12` [Compound 82, 3-{2-tert-Butyl-3-[(ethyl-propyl-amino)-methyl]-imidazo[1,2-a]pyridin-7-yl}-N hydroxy-acrylamide], the IC50 in experiment [1] is 270 nM. The compound further showed a GI50 with Colo205 cells (setting [2]) of 1800 nM.

In the case of `CCCCc1nc2cc(/C=C/C(=O)NO)ccn2c1CN(C)C` [Compound 83, 3-(2-Butyl-3-dimethylaminomethyl-imidazo[1,2-a]pyridin-7-yl)-N-hydroxy-acrylamide], in experiment [1], the IC50 amounted to 40 nM. In the experiment with Colo205 cells (setting [3]), this compound returned a GI50 of 230 nM.

For `CCNCc1c(C(C)(C)C)nc2cc(/C=C/C(=O)NO)ccn12` [Compound 84, 3-(2-tert-Butyl-3-ethylaminomethyl-imidazo[1,2-a]pyridin-7-yl)-N-hydroxy-acrylamide], the IC50 in experiment [1] came out at 60 nM. The 50% growth inhibitory concentration (GI50) in the experiment on Colo205 cells (setting [2]) stood at 470 nM.

As to `CCCCN(CC)Cc1c(C(C)(C)C)nc2cc(/C=C/C(=O)NO)ccn12` [Compound 85, 3-{2-tert-Butyl-3-[(butyl-ethyl-amino)-methyl]-imidazo[1,2-a]pyridin-7-yl}-N-hydroxy-acrylamide], the IC50 in experiment [1] is 60 nM. Also, in the experiment with Colo205 cells (setting [2]), the GI50 was 680 nM.

Consider `CCN(Cc1c(C(C)(C)C)nc2cc(/C=C/C(=O)NO)ccn12)CC(C)C` [Compound 86, 3-{2-tert-Butyl-3-[(ethyl-isobutyl-amino)-methyl]-imidazo[1,2-a]pyridin-7-yl}-N-hydroxy-acrylamide], for which, in experiment [1], the IC50 is 570 nM. This compound returned a GI50 in the experiment with Colo205 cells (setting [2]) of 3900 nM.

As to `CCCCCN(CC)Cc1c(C(C)(C)C)nc2cc(/C=C/C(=O)NO)ccn12` [Compound 87, 3-{2-tert-Butyl-3-[(ethyl-pentyl-amino)-methyl]-imidazo[1,2-a]pyridin-7-yl}-N-hydroxy-acrylamide], the IC50 in experiment [1] stood at 130 nM. The GI50 with Colo205 cells (setting [2]) came to 750 nM.

Consider `CCN(CCC(C)C)Cc1c(C(C)(C)C)nc2cc(/C=C/C(=O)NO)ccn12` [Compound 89, 3-(2-tert-Butyl-3-{[ethyl-(3-methyl-butyl)-amino]-methyl}-imidazo[1,2-a]pyridin-7-yl)-N-hydroxy-acrylamide], for which the IC50 in experiment [1] is 60 nM. Moreover, growth in the experiment with Colo205 cells (setting [3]) was halved (GI50) at 350 nM.

Regarding `CCCCCCN(CC)Cc1c(C(C)(C)C)nc2cc(/C=C/C(=O)NO)ccn12` [Compound 90, 3-{2-tert-Butyl-3-[(ethyl-hexyl-amino)-methyl]-imidazo[1,2-a]pyridin-7-yl}-N-hydroxy-acrylamide], the IC50 in experiment [1] was 240 nM. Further, halving of growth with Colo205 cells (setting [2]) (GI50) required 2000 nM.

Turning to `CCCC(C)CN(CC)Cc1c(C(C)(C)C)nc2cc(/C=C/C(=O)NO)ccn12` (stereo not drawn) [Compound 91, 3-(2-tert-Butyl-3-{[ethyl-(2-methyl-pentyl)-amino]-methyl}-imidazo[1,2-a]pyridin-7-yl)-N-hydroxy-acrylamide], in experiment [1], the IC50 was determined as 470 nM. This compound also yielded a GI50 in the experiment with Colo205 cells (setting [2]) of 2100 nM.

`CCN(CCC(C)(C)C)Cc1c(C(C)(C)C)nc2cc(/C=C/C(=O)NO)ccn12` [Compound 92, 3-(2-tert-Butyl-3-{[(3,3-dimethyl-butyl)-ethyl-amino]-methyl}-imidazo[1,2a]pyridin-7-yl)-N-hydroxy-acrylamide]: the IC50 in experiment [1] worked out at 70 nM. In the experiment with Colo205 cells (setting [3]), this compound returned a GI50 of 480 nM.

Regarding `CCC(CC)CN(CC)Cc1c(C(C)(C)C)nc2cc(/C=C/C(=O)NO)ccn12` [Compound 93, 3-(2-tert-Butyl-3-{[ethyl-(2-ethyl-butyl)-amino]-methyl}-imidazo[1,2-a]pyridin-7-yl)-N-hydroxy-acrylamide], the IC50 in experiment [1] turned out to be 190 nM. The same compound came in with a GI50 in the experiment with Colo205 cells (setting [2]) of 970 nM.

Turning to `CCN(CCCSC)Cc1c(C(C)(C)C)nc2cc(/C=C/C(=O)NO)ccn12` [Compound 95, 3-(2-tert-Butyl-3-{[ethyl-(3-methylsulfanyl-propyl)-amino]-methyl}-imidazo[1,2-a]pyridin-7-yl)-N-hydroxy-acrylamide], the IC50 in experiment [1] was 90 nM. This compound also came in with a GI50 with Colo205 cells (setting [2]) of 600 nM.

For `CCN(Cc1c(C(C)(C)C)nc2cc(/C=C/C(=O)NO)ccn12)CC1CCOC1` (stereo not drawn) [Compound 96, 3-(2-tert-Butyl-3-{[ethyl-(tetrahydro-furan-3-ylmethyl)-amino]-methyl}-imidazo[1,2-a]pyridin-7-yl)-N-hydroxy-acrylamide], the IC50 in experiment [1] came to 370 nM. In the experiment on Colo205 cells (setting [2]), this compound returned a GI50 of 3400 nM.

Regarding `CCN(Cc1c(C(C)(C)C)nc2cc(/C=C/C(=O)NO)ccn12)CC1CC1` [Compound 97, 3-{2-tert-Butyl-3-[(cyclopropylmethyl-ethyl-amino)-methyl]-imidazo[1,2-a]pyridin-7-yl}-N-hydroxy-acrylamide], the IC50 in experiment [1] is 330 nM. Also, in the experiment with Colo205 cells (setting [2]), the GI50 came to 2100 nM.

In the case of `CCN(Cc1c(C(C)(C)C)nc2cc(/C=C/C(=O)NO)ccn12)CC1CCCCC1` [Compound 98, 3-{2-tert-Butyl-3-[(cyclohexylmethyl-ethyl-amino)-methyl]-imidazo[1,2-a]pyridin-7-yl}-N-hydroxy-acrylamide], the IC50 in experiment [1] is 190 nM. In the experiment with Colo205 cells (setting [3]), this compound yielded a GI50 of 1100 nM.

For `CCCCN(CC)Cc1c(C)nc2cc(/C=C/C(=O)NO)ccn12` [Compound 99, 3-{3-[(Butyl-ethyl-amino)-methyl]-2-methyl-imidazo[1,2-a]pyridin-7-yl}-N-hydroxy-acrylamide], in experiment [1], the IC50 came out at 30 nM. In the experiment with Colo205 cells (setting [2]), it took 180 nM to inhibit growth by half (GI50).

Take `CCCN(CC)Cc1c(C)nc2cc(/C=C/C(=O)NO)ccn12` [Compound 100, 3-{3-[(Ethyl-propyl-amino)-methyl]-2-methyl-imidazo[1,2-a]pyridin-7-yl}-N-hydroxy-acrylamide]: the IC50 in experiment [1] amounted to 540 nM. Also, the GI50 with Colo205 cells (setting [3]) is 4600 nM.

As to `CCC(CC)CN(CC)Cc1c(C)nc2cc(/C=C/C(=O)NO)ccn12` [Compound 101, 3-(3-{[Ethyl-(2-ethyl-butyl)-amino]-methyl}-2-methyl-imidazo[1,2-a]pyridin-7-yl)-N-hydroxy-acrylamide], the IC50 in experiment [1] is 10 nM. In the experiment on Colo205 cells (setting [2]), the GI50 came out at 50 nM.

On to `CCCN(Cc1c(C(C)(C)C)nc2cc(/C=C/C(=O)NO)ccn12)C(C)C` [Compound 102, 3-{2-tert-Butyl-3-[(isopropyl-propyl-amino)-methyl]-imidazo[1,2-a]pyridin-7-yl}-N-hydroxy-acrylamide], for which the IC50 in experiment [1] was 300 nM. The same compound returned a GI50 in the experiment on Colo205 cells (setting [2]) of 2500 nM.

Consider `CCN(CC)Cc1c(-c2ccccc2)nc2ccc(/C=C/C(=O)NO)cn12` [Compound 103, 3-(3-Diethylaminomethyl-2-phenyl-imidazo[1,2a]pyridin-6-yl)-N-hydroxy-acrylamide], for which the IC50 in experiment [1] was > 10000 nM. The GI50 in the experiment with Colo205 cells (setting [2]) is 41000 nM.

For `CN(Cc1c(C(C)(C)C)nc2cc(C=CC(=O)NO)ccn12)CC(C)(C)C` [Compound 104, 3-(2-tert-Butyl-3-{[(2,2-dimethyl-propyl)-methyl-amino]-methyl}-imidazo[1,2-a]pyridin-7-yl)-N-hydroxy-acrylamide], the IC50 in experiment [1] was 780 nM. For the same compound, in the experiment on Colo205 cells (setting [2]), growth was halved (GI50) at 6300 nM.

As for `CCN(Cc1c(-c2ccccc2)nc2cc(/C=C/C(=O)NO)ccn12)CC(F)(F)F` [Compound 105, 3-(3-{[Ethyl-(2,2,2-trifluoro-ethyl)-amino]-methyl}-2-phenyl-imidazo [1,2-a]pyridin-7-yl)-N-hydroxy-acrylamide], the IC50 in experiment [1] came to 7400 nM. Besides, the GI50 in the experiment with Colo205 cells (setting [2]) was 44000 nM.

Consider `CCCCN(C)Cc1c(C(C)(C)C)nc2cc(/C=C/C(=O)NO)ccn12` [Compound 106, 3-{2-tert-Butyl-3-[(butyl-methyl-amino)-methyl]-imidazo[1,2-a]pyridin-7-yl}-N-hydroxy-acrylamide], for which the IC50 in experiment [1] stood at 220 nM. In the experiment on Colo205 cells (setting [2]), this compound gave a GI50 of 1700 nM.

Regarding `CCC(CC)CN(C)Cc1c(C(C)(C)C)nc2cc(/C=C/C(=O)NO)ccn12` [Compound 107, 3-(2-tert-Butyl-3-{[(2-ethyl-butyl)-methyl-amino]-methyl}-imidazo[1,2-a]pyridin-7-yl)-N-hydroxy-acrylamide], the IC50 in experiment [1] was 410 nM. Moreover, the GI50 in the experiment on Colo205 cells (setting [2]) came out at 2300 nM.

For the compound `CC(C)CCN(C)Cc1c(C(C)(C)C)nc2cc(/C=C/C(=O)NO)ccn12` [Compound 108, 3-(2-tert-Butyl-3-{[methyl-(3-methyl-butyl)-amino]-methyl}-imidazo[1,2-a]pyridin-7-yl)-N-hydroxy-acrylamide], the IC50 in experiment [1] turned out to be 350 nM. Further, in the experiment on Colo205 cells (setting [2]), the GI50 worked out at 900 nM.

As to `CN(CCC(C)(C)C)Cc1c(C(C)(C)C)nc2cc(/C=C/C(=O)NO)ccn12` [Compound 109, 3-(2-tert-Butyl-3-{[(3,3-dimethyl-butyl)-methyl-amino]-methyl}-imidazo[1,2-a]pyridin-7-yl)-N-hydroxy-acrylamide], the IC50 in experiment [1] is 270 nM. In addition, the GI50 in the experiment on Colo205 cells (setting [2]) was 730 nM.

For the compound `CCCN(Cc1c(C)nc2cc(C=CC(=O)NO)ccn12)CC(C)(C)C` [Compound 110, 3-(3-{[(2,2-Dimethyl-propyl)-propyl-amino]-methyl}-2-methyl-imidazo[1,2a]pyridin-7-yl)-N-hydroxy-acrylamide], in experiment [1], the IC50 came to 130 nM. In addition, the GI50 in the experiment on Colo205 cells (96 h treatment) came out at 700 nM.
